Experimental data from the NIST ThermoML archive (doi:10.1021/je060339m).
± gives the expanded uncertainty stated by the source.

Settings: Liquid

CCOC(C)=O [ethyl acetate]
mass density (343.15 K, 15000 kPa): 857.3 ± 4.9 kg/m3 | mass density (343.15 K, 20000 kPa): 863 ± 5.5 kg/m3 | mass density (343.15 K, 25000 kPa): 868.5 ± 6.1 kg/m3 | mass density (343.15 K, 30000 kPa): 875.1 ± 6.7 kg/m3 | mass density (343.15 K, 35000 kPa): 881.6 ± 7.3 kg/m3 | mass density (348.15 K, 100 kPa): 829.4 ± 3.1 kg/m3 | mass density (348.15 K, 1000 kPa): 830.5 ± 3.3 kg/m3 | mass density (348.15 K, 2000 kPa): 832.3 ± 3.4 kg/m3 | mass density (348.15 K, 3000 kPa): 833.8 ± 3.5 kg/m3 | mass density (348.15 K, 3800 kPa): 835 ± 3.6 kg/m3 | mass density (348.15 K, 5000 kPa): 836.8 ± 3.7 kg/m3 | mass density (348.15 K, 10000 kPa): 845.5 ± 4.3 kg/m3 | mass density (348.15 K, 15000 kPa): 851.8 ± 4.9 kg/m3 | mass density (348.15 K, 20000 kPa): 857.7 ± 5.5 kg/m3 | mass density (348.15 K, 25000 kPa): 863.5 ± 6.1 kg/m3 | mass density (348.15 K, 30000 kPa): 870.2 ± 6.7 kg/m3 | mass density (348.15 K, 35000 kPa): 877 ± 7.3 kg/m3 | mass density (353.15 K, 1000 kPa): 824.3 ± 3.3 kg/m3 | mass density (353.15 K, 2000 kPa): 826 ± 3.4 kg/m3 | mass density (353.15 K, 3000 kPa): 827.5 ± 3.5 kg/m3 | mass density (353.15 K, 3800 kPa): 828.8 ± 3.6 kg/m3 | mass density (353.15 K, 5000 kPa): 830.6 ± 3.7 kg/m3 | mass density (353.15 K, 10000 kPa): 837.7 ± 4.3 kg/m3 | mass density (353.15 K, 15000 kPa): 844.3 ± 4.9 kg/m3 | mass density (353.15 K, 20000 kPa): 850.4 ± 5.5 kg/m3 | mass density (353.15 K, 25000 kPa): 856.1 ± 6.1 kg/m3 | mass density (353.15 K, 30000 kPa): 862.7 ± 6.7 kg/m3 | mass density (353.15 K, 35000 kPa): 869.6 ± 7.3 kg/m3 | mass density (358.15 K, 1000 kPa): 818.4 ± 3.3 kg/m3 | mass density (358.15 K, 2000 kPa): 820 ± 3.4 kg/m3 | mass density (358.15 K, 3000 kPa): 821.6 ± 3.5 kg/m3 | mass density (358.15 K, 3800 kPa): 822.8 ± 3.6 kg/m3 | mass density (358.15 K, 5000 kPa): 824.7 ± 3.7 kg/m3 | mass density (358.15 K, 10000 kPa): 832.1 ± 4.3 kg/m3 | mass density (358.15 K, 15000 kPa): 838.9 ± 4.9 kg/m3 | mass density (358.15 K, 20000 kPa): 845.2 ± 5.5 kg/m3 | mass density (358.15 K, 25000 kPa): 851 ± 6.1 kg/m3 | mass density (358.15 K, 30000 kPa): 857.6 ± 6.7 kg/m3 | mass density (358.15 K, 35000 kPa): 864.7 ± 7.3 kg/m3 | mass density (363.15 K, 1000 kPa): 811.8 ± 3.3 kg/m3 | mass density (363.15 K, 2000 kPa): 813.5 ± 3.4 kg/m3 | mass density (363.15 K, 3000 kPa): 815.3 ± 3.5 kg/m3 | mass density (363.15 K, 3800 kPa): 816.6 ± 3.6 kg/m3 | mass density (363.15 K, 5000 kPa): 818.5 ± 3.7 kg/m3 | mass density (363.15 K, 10000 kPa): 826.3 ± 4.3 kg/m3 | mass density (363.15 K, 15000 kPa): 833.3 ± 4.9 kg/m3 | mass density (363.15 K, 20000 kPa): 839.7 ± 5.5 kg/m3 | mass density (363.15 K, 25000 kPa): 845.8 ± 6.1 kg/m3 | mass density (363.15 K, 30000 kPa): 852.9 ± 6.7 kg/m3 | mass density (363.15 K, 35000 kPa): 860.2 ± 7.3 kg/m3 | mass density (368.15 K, 1000 kPa): 804.9 ± 3.3 kg/m3 | mass density (368.15 K, 2000 kPa): 806.8 ± 3.4 kg/m3 | mass density (368.15 K, 3000 kPa): 808.6 ± 3.5 kg/m3 | mass density (368.15 K, 3800 kPa): 810 ± 3.6 kg/m3 | mass density (368.15 K, 5000 kPa): 812.1 ± 3.8 kg/m3 | mass density (368.15 K, 10000 kPa): 820.2 ± 4.4 kg/m3 | mass density (368.15 K, 15000 kPa): 827.5 ± 5 kg/m3 | mass density (368.15 K, 20000 kPa): 834.3 ± 5.6 kg/m3 | mass density (368.15 K, 25000 kPa): 840.6 ± 6.2 kg/m3 | mass density (368.15 K, 30000 kPa): 848 ± 6.8 kg/m3 | mass density (368.15 K, 35000 kPa): 855.5 ± 7.4 kg/m3 | mass density (373.15 K, 1000 kPa): 798.5 ± 3.3 kg/m3 | mass density (373.15 K, 2000 kPa): 800.4 ± 3.4 kg/m3 | mass density (373.15 K, 3000 kPa): 802.4 ± 3.5 kg/m3 | mass density (373.15 K, 3800 kPa): 803.8 ± 3.6 kg/m3 | mass density (373.15 K, 5000 kPa): 806 ± 3.8 kg/m3 | mass density (373.15 K, 10000 kPa): 814.4 ± 4.4 kg/m3 | mass density (373.15 K, 15000 kPa): 822 ± 5 kg/m3 | mass density (373.15 K, 20000 kPa): 829 ± 5.6 kg/m3 | mass density (373.15 K, 25000 kPa): 835.5 ± 6.2 kg/m3 | mass density (373.15 K, 30000 kPa): 843 ± 6.8 kg/m3 | mass density (373.15 K, 35000 kPa): 850.6 ± 7.4 kg/m3 | mass density (378.15 K, 1000 kPa): 791.8 ± 3.3 kg/m3 | mass density (378.15 K, 2000 kPa): 793.8 ± 3.4 kg/m3 | mass density (378.15 K, 3000 kPa): 795.8 ± 3.5 kg/m3 | mass density (378.15 K, 3800 kPa): 797.3 ± 3.6 kg/m3 | mass density (378.15 K, 5000 kPa): 799.6 ± 3.8 kg/m3 | mass density (378.15 K, 10000 kPa): 808.5 ± 4.4 kg/m3 | mass density (378.15 K, 15000 kPa): 816.5 ± 5 kg/m3 | mass density (378.15 K, 20000 kPa): 823.7 ± 5.6 kg/m3 | mass density (378.15 K, 25000 kPa): 830.5 ± 6.2 kg/m3 | mass density (378.15 K, 30000 kPa): 838.4 ± 6.8 kg/m3 | mass density (378.15 K, 35000 kPa): 846.3 ± 7.4 kg/m3 | mass density (383.15 K, 1000 kPa): 784.8 ± 3.3 kg/m3 | mass density (383.15 K, 2000 kPa): 787.1 ± 3.4 kg/m3 | mass density (383.15 K, 3000 kPa): 789.1 ± 3.5 kg/m3 | mass density (383.15 K, 3800 kPa): 790.8 ± 3.6 kg/m3 | mass density (383.15 K, 5000 kPa): 793.2 ± 3.8 kg/m3 | mass density (383.15 K, 10000 kPa): 802.4 ± 4.4 kg/m3 | mass density (383.15 K, 15000 kPa): 810.7 ± 5 kg/m3 | mass density (383.15 K, 20000 kPa): 818.2 ± 5.6 kg/m3 | mass density (383.15 K, 25000 kPa): 825.3 ± 6.2 kg/m3 | mass density (383.15 K, 30000 kPa): 833.5 ± 6.8 kg/m3 | mass density (383.15 K, 35000 kPa): 841.6 ± 7.4 kg/m3 | mass density (388.15 K, 1000 kPa): 778.2 ± 3.3 kg/m3 | mass density (388.15 K, 2000 kPa): 780.5 ± 3.4 kg/m3 | mass density (388.15 K, 3000 kPa): 782.7 ± 3.6 kg/m3 | mass density (388.15 K, 3800 kPa): 784.4 ± 3.7 kg/m3 | mass density (388.15 K, 5000 kPa): 786.9 ± 3.8 kg/m3 | mass density (388.15 K, 10000 kPa): 796.4 ± 4.4 kg/m3 | mass density (388.15 K, 15000 kPa): 805.1 ± 5 kg/m3 | mass density (388.15 K, 20000 kPa): 813 ± 5.6 kg/m3 | mass density (388.15 K, 25000 kPa): 820.3 ± 6.2 kg/m3 | mass density (388.15 K, 30000 kPa): 828.8 ± 6.8 kg/m3 | mass density (388.15 K, 35000 kPa): 837.2 ± 7.4 kg/m3 | mass density (393.15 K, 1000 kPa): 771 ± 3.3 kg/m3 | mass density (393.15 K, 2000 kPa): 773.5 ± 3.5 kg/m3 | mass density (393.15 K, 3000 kPa): 775.9 ± 3.6 kg/m3 | mass density (393.15 K, 3800 kPa): 777.7 ± 3.7 kg/m3 | mass density (393.15 K, 5000 kPa): 780.4 ± 3.8 kg/m3 | mass density (393.15 K, 10000 kPa): 790.5 ± 4.4 kg/m3 | mass density (393.15 K, 15000 kPa): 799.4 ± 5 kg/m3 | mass density (393.15 K, 20000 kPa): 807.6 ± 5.6 kg/m3 | mass density (393.15 K, 25000 kPa): 815.2 ± 6.2 kg/m3 | mass density (393.15 K, 30000 kPa): 823.9 ± 6.8 kg/m3 | mass density (393.15 K, 35000 kPa): 832.4 ± 7.4 kg/m3
